The record followed here is ChEMBL document CHEMBL1201862, “PubChem BioAssay data set” (2004).

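Where inhibition never reached the appropriate level, the endpoint shown equals the highest concentration tested. Otherwise, values were interpolated linearly from a five-concentration, 48-hour dose response in 96-well plates. GI50: concentration for 50% inhibition of growth.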 Calls of active or inactive are those of the source. No stated cut-off is given here; in the data, active = GI50 up to about 1.1 µM and inactive = higher.

Among the test systems are M14; Hs-578T; MDA-MB-435; PC-3; T47D; SR; MDA-N; RXF 631.
Holding throughout (experiment): growth of human tumour cells (NCI), 48 h

For `O=c1cnn(C/C=C/CBr)c(=O)[nH]1`, the GI50 in the assay with M14 is 15.3 µM (inactive); in the assay on Hs-578T, 33 µM (inactive); in the assay on MDA-MB-435, 14.9 µM (inactive); in the assay on PC-3, 14.9 µM (inactive); in the assay with T47D it was 19.1 µM (inactive); in the assay on SR, 17.7 µM (inactive). Besides, the GI50 with MDA-N is 14.7 µM (inactive).
Take `COc1ccccc1OCC(COC(=O)Nc1ccccc1)OC(=O)Nc1ccccc1` (stereo not drawn): the GI50 with M14 was 91.8 µM (inactive).
As for `CCOC(=O)c1ccc(N(CCOS(C)(=O)=O)CCOS(C)(=O)=O)cc1`, the GI50 is 53.1 µM (inactive) in the assay on M14; 29.3 µM (inactive) with Hs-578T; 52.2 µM (inactive) in the assay on MDA-MB-435; 50.7 µM (inactive) in the assay with PC-3; 43 µM (inactive) with T47D; 45.6 µM (inactive) with MDA-N.
Take `c1ccc(-n2cnnc2-c2nsc3ccccc23)cc1`: the GI50 in the assay with M14 is > 100 µM (inactive).
As to `C/C=C1\C[C@@H]2C(OC)Nc3cc(O)c(OC)cc3C(=O)N2C1` (stereo partly drawn), the GI50 in the assay on M14 is 0.00461 µM (active); in the assay on Hs-578T it was 0.0142 µM (active); with MDA-MB-435 it was < 0.01 µM (active); with PC-3, < 0.01 µM (active); with T47D, 0.0141 µM (active); in the assay with SR, 0.000431 µM (active). Besides, the GI50 in the assay on RXF 631 is 0.00859 µM (active); in the assay on MDA-N, < 0.01 µM (active).
Take `C[C@H]1O[C@@H](O[C@H]2[C@@H](O)C[C@H](O[C@H]3[C@@H](O)C[C@H](O[C@H]4CC[C@@]5(C)[C@H](CC[C@@H]6[C@@H]5CC[C@]5(C)[C@@H](C7=CC(=O)OC7)CC[C@]65O)C4)O[C@@H]3C)O[C@@H]2C)C[C@H](O)[C@@H]1O` [DIGITOXIN]: the GI50 is < 0.0378 µM (active) in the assay with Hs-578T; 0.0485 µM (active) in the assay on MDA-MB-435; < 0.033 µM (active) with PC-3; 0.0338 µM (active) in the assay on SR; 0.0256 µM (active) in the assay with MDA-N.
